From ChEMBL document CHEMBL1201862, “PubChem BioAssay data set” (2004) come the findings set out here.

Test systems include SF-268; SF-539; KM12; UACC-62; 786-0; Malme-3M; MDA-MB-435; SN12C; CAKI-1; OVCAR-8; NCI-H522; MOLT-4; A549; RPMI-8226; HOP-62; HCT-116; SNB-19; MDA-MB-231; MDA-N; UO-31.
Assay in all cases: NCI-60 cell line screen, 48 h

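Tested at 5 concentrations; 48 h exposure; 96-well plates; endpoints linearly interpolated, else capped at highest concentration. GI50 is the concentration that inhibits growth by half.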 Active and inactive are the calls of the source. No stated cut-off is given here; in the data, active = GI50 up to about 1.1 µM and inactive = higher.

Take `COc1cc2c(c(OC)c1OC)-c1c(cc3c(c1OC)OCO3)CC(C)C(C)(O)C2OC(=O)c1ccccc1` (stereo not given): the GI50 was 53.5 µM (inactive) with SF-268; > 100 µM (inactive) in the assay with SF-539; 41.1 µM (inactive) in the assay on KM12; 56 µM (inactive) in the assay with UACC-62; 55.1 µM (inactive) in the assay on 786-0; 45.5 µM (inactive) in the assay on Malme-3M. For the same compound, the GI50 was 55 µM (inactive) in the assay with MDA-MB-435; 40.5 µM (inactive) with SN12C; 33 µM (inactive) in the assay on CAKI-1; 40.6 µM (inactive) in the assay on OVCAR-8; 24.6 µM (inactive) with NCI-H522; 5.58 µM (inactive) in the assay with MOLT-4. In addition, the GI50 is 42.1 µM (inactive) with A549; 22 µM (inactive) in the assay on RPMI-8226; > 100 µM (inactive) in the assay with HOP-62; 31.4 µM (inactive) in the assay on HCT-116; 37.8 µM (inactive) in the assay with SNB-19; 20.2 µM (inactive) in the assay with MDA-MB-231. Further, the results for the GI50 with MDA-N and with UO-31 were 60.7 µM (inactive) and 21.1 µM (inactive), respectively.
As to `O=C(NCc1cccnc1)C(=O)NCc1cccnc1`, the GI50 in the assay on SF-268, in the assay on SF-539, in the assay with KM12, in the assay on UACC-62, in the assay with 786-0 and in the assay with Malme-3M was > 100 µM (inactive) in each case. The GI50 was > 100 µM (inactive) in the assay on MDA-MB-435; > 100 µM (inactive) with SN12C; > 100 µM (inactive) with CAKI-1; > 100 µM (inactive) in the assay with OVCAR-8; > 100 µM (inactive) with NCI-H522; 0.149 µM (active) in the assay with MOLT-4. Moreover, the GI50 in the assay with A549, in the assay with RPMI-8226, with HOP-62, in the assay on HCT-116, in the assay with SNB-19 and with MDA-MB-231 was > 100 µM (inactive) each time. In addition, the GI50 in the assay with MDA-N and in the assay on UO-31 was > 100 µM (inactive) throughout.
Turning to `O=C1Nc2ccccc2/C1=C/c1c(Cl)[nH]c2ccc(O)cc12`, the GI50 in the assay with SF-268 was 3.77 µM (inactive); in the assay with SF-539, 0.544 µM (active); in the assay with KM12 it was 1.37 µM (inactive); with UACC-62, 0.681 µM (active); in the assay on 786-0, 3.27 µM (inactive); with Malme-3M it was 0.736 µM (active). Moreover, the GI50 in the assay with MDA-MB-435 is 0.214 µM (active); in the assay on SN12C, 0.641 µM (active); in the assay on CAKI-1, 3.74 µM (inactive); in the assay on OVCAR-8, 2.93 µM (inactive); in the assay with NCI-H522 it was 1.3 µM (inactive); with MOLT-4, 1 µM (active). The GI50 with A549 is 4.54 µM (inactive); in the assay on RPMI-8226, 3.43 µM (inactive); with HOP-62 it was 2.59 µM (inactive); with HCT-116, 0.719 µM (active); with SNB-19, 3.21 µM (inactive); with MDA-MB-231, 1.79 µM (inactive). Also, the figures for the GI50 in the assay with MDA-N and in the assay with UO-31 were 0.194 µM (active) and 3.9 µM (inactive), respectively.
Take `CC(=O)C1(c2ccccc2)CCN(Cn2sc3nc(C)cc(C)c3c2=O)CC1`: the GI50 was 34.8 µM (inactive) in the assay on SF-268; 22.5 µM (inactive) in the assay on SF-539; > 100 µM (inactive) in the assay on KM12; 28.9 µM (inactive) in the assay on UACC-62; 16.9 µM (inactive) in the assay with 786-0; 20.3 µM (inactive) in the assay with Malme-3M. The GI50 in the assay with MDA-MB-435 was 23.1 µM (inactive); with SN12C, 21.4 µM (inactive); with CAKI-1, 35.9 µM (inactive); in the assay with OVCAR-8, 27.4 µM (inactive); in the assay with NCI-H522 it was 12.4 µM (inactive); with MOLT-4 it was 27.7 µM (inactive). For the same compound, the GI50 was 64.7 µM (inactive) in the assay with A549; 56.9 µM (inactive) in the assay with RPMI-8226; 34.8 µM (inactive) in the assay with HOP-62; 23.1 µM (inactive) in the assay with HCT-116; > 100 µM (inactive) in the assay with SNB-19; 33 µM (inactive) in the assay with MDA-MB-231. Moreover, the GI50 is 19.8 µM (inactive) in the assay on MDA-N and 16.5 µM (inactive) in the assay on UO-31.
